# Experimental data: US12359236B2, “Production of 2-hydroxyacyl-CoAs and derivatives thereof” (Mojia Biotech Pte. Ltd., priority 2019, dated 2025)
# B1: OfOxc: oxalyl-CoA decarboxylase from Oxalobacter formigenes (protein, UniProt P40149 1-568, looked up)
# Oxalyl-CoA decarboxylase: MSNDDNVELTDGFHVLIDALKMNDIDTMYGVVGIPITNLARMWQDDGQRFYSFRHEQHAGYAASIAGYIEGKPGVCLTVSAPGFLNGVTSLAHATTNCFPMILLSGSSEREIVDLQQGDYEEMDQMNVARPHCKASFRINSIKDIPIGIARAVRTAVSGRPGGVYVDLPAKLFGQTISVEEANKLLFKPIDPAPAQIPAEDAIARAADLIKNAKRPVIMLGKGAAYAQCDDEIRALVEETGIPFLPMGMAKGLLPDNHPQSAAATRAFALAQCDVCVLIGARLNWLMQHGKGKTWGDELKKYVQIDIQANEMDSNQPIAAPVVGDIKSAVSLLRKALKGAPKADAEWTGALKAKVDGNKAKLAGKMTAETPSGMMNYSNSLGVVRDFMLANPDISLVNEGANALDNTRMIVDMLKPRKRLDSGTWGVMGIGMGYCVAAAAVTGKPVIAVEGDSAFGFSGMELETICRYNLPVTVIIMNNGGIYKGNEADPQPGVISCTRLTRGRYDMMMEAFGGKGYVANTPAELKAALEEAVASGKPCLINAMIDPDAGVESGRIKSLNVVSKVGKK
# B2: FucO: E. coli 1,2-diol oxidoreductase, added as cell extract (protein, UniProt P0A9S1 1-382, looked up)
# Lactaldehyde reductase: MANRMILNETAWFGRGAVGALTDEVKRRGYQKALIVTDKTLVQCGVVAKVTDKMDAAGLAWAIYDGVVPNPTITVVKEGLGVFQNSGADYLIAIGGGSPQDTCKAIGIISNNPEFADVRSLEGLSPTNKPSVPILAIPTTAGTAAEVTINYVITDEEKRRKFVCVDPHDIPQVAFIDADMMDGMPPALKAATGVDALTHAIEGYITRGAWALTDALHIKAIEIIAGALRGSVAGDKDAGEEMALGQYVAGMGFSNVGLGLVHGMAHPLGAFYNTPHGVANAILLPHVMRYNADFTGEKYRDIARVMGVKVEGMSLEEARNAAVEAVFALNRDVGIPPHLRDVGVRKEDIPALAQAALDDVCTGGNPREATLEDIVELYHTAW
# modifications: cell extract
# notes: E. coli 1,2-diol oxidoreductase, added as cell extract
# Tests used:
# Format in all cases: biochemical
# [1] = test system: Rhodospirillales bacterium URHD0017 2-hydroxyacyl-CoA lyase (RuHACL) variant G390N (RuHACL^G390N); test: Kinetics of the C1 condensation reaction of the G390N RuHACL mutant on formyl-CoA and formaldehyde; details: in vitro, formyl-CoA and formaldehyde as substrates
# [2] = target: Rhodospirillales bacterium URHD0017 2-hydroxyacyl-CoA lyase (RuHACL), wild type, UniProt: A0A1H8YFL8; test: Kinetics of RuHACL-catalyzed condensation (ligation) of acetone with formyl-CoA; details: 0.5 μM purified RuHACL, 1 mM formyl-CoA, acetone varied, 50 mM KPi pH 7.4, 2.5 mM MgCl2, 0.1 mM TPP, room temperature, 1 min; Michaelis-Menten fit
# Method: 0.5 μM purified RuHACL was incubated with 1 mM formyl-CoA in a reaction mixture also containing 50 mM KPi pH 7.4, 2.5 mM MgCl2, and 0.1 mM TPP. The concentration of acetone was varied, and room temperature reactions were carried out for 1 min. 40 μL samples were quenched by addition of 10 μL 0.5 M NaOH and placed on ice. 12.5 μL of a saturated ammonium sulfate solution acidified with 1% sulfuric acid was added and the samples were analyzed by HPLC for the determination of the initial reaction rates after centrifugation at 20817×g for 15 minutes. […] The apparent kcat of RuHACL on acetone was 2.7±0.8 s^−1 while the KM was 1.57±0.68 M, corresponding to a catalytic efficiency of 1.7±0.9 s^−1 M^−1.
# formaldehyde = test: Cell-free prototyping of one carbon bioconversion pathway with E. coli cell extracts; details: for performance of enzyme variant in cell-free glycolic acid pathway: mixed extracts of HACL and ACR variants, formaldehyde as sole carbon source
# Method: Cell-free reactions for pathway prototyping contained 50 mM KPi pH 7.4, 4 mM MgCl2, 0.1 mM TPP, 2.5 mM CoASH, 5 mM NAD^+, and 50 mM formaldehyde. For time course experiments, 0.1 mM coenzyme B12 was added. Individual cell extract loading was around 4.4 g/L protein (⅛ of the reaction volume), and the amount of protein added to each reaction was normalized with BL21(DE3) extract to ˜26 g/L protein (¾ of the reaction volume). Reactions were incubated at room temperature for one hour unless otherwise specified. ¼ of the reaction volume of saturated ammonium sulfate solution acidified with 1% sulfuric acid was added to terminate the reactions. Samples were centrifuged at 20817×g for 15 minutes and the supernatant analyzed by HPLC or GC-MS as described below. For isotope labeling experiments, 13C formaldehyde (Cambridge Isotope Laboratories, Tewksbury, MA) was used.
# We combined extracts of E. coli, prepared as described in the previous example(s), expressing variants of HACL and ACR to rapidly screen for the best performing combinations. […] The combination of LmACR and RuHACL enabled the production of 6.2±0.6 mM glycolic acid in 1 hr. The use of 13C-labeled formaldehyde confirmed that the observed glycolic acid was derived from the C1 substrate, judging by the +2 shift in m/z of the [M-15]^+ ion (FIG. 13C).
# Quantification of product and substrate concentrations (formic acid, formaldehyde, glycolic acid, ethylene glycol, ethanol, acetic acid) were determined via HPLC using a Shimadzu Prominence SIL 20 system (Shimadzu Scientific Instruments, Inc., Columbia, MD) equipped with a refractive index detector and an HPX-87H organic acid column (Bio-Rad, Hercules, CA) with operating conditions to optimize peak separation (0.3 ml/min flowrate, 30 mM H2SO4 mobile phase, column temperature 42° C.). Compound identification and analysis was performed by GC-MS using an Agilent 7890B Series Custom Gas Chromatography system equipped with a 5977B Inert Plus Mass Selective Detector Turbo EI Bundle (for identification) and an Agilent HP-5-ms capillary column (0.25 mm internal diameter, 0.25 μm film thickness, 30 m length).
Molecule,KM of the mutant compared to the wild type [1],kcat of the mutant compared to the wild type [1],performance of enzyme variant in cell-free glycolic acid pathway (formaldehyde),further results
C=O [formaldehyde],no significant difference,no significant difference,,
CC(C)(COP(=O)(O)OP(=O)(O)OC[C@H]1O[C@@H](n2cnc3c(N)ncnc32)[C@H](O)[C@@H]1OP(=O)(O)O)[C@@H](O)C(=O)NCCC(=O)NCCSC=O [formyl-CoA],no significant difference,no significant difference,,
CC(C)=O [acetone],,,,apparent kcat on acetone [2]: 2.7 ± 0.8 s⁻¹
HsHACL1: 2-hydroxyacyl-CoA lyase HACL1 from Homo sapiens,,,enabling product synthesis,
B1,,,capable of catalyzing the pathway,
B2,,,,ethylene glycol synthesis (formaldehyde; extract added to LmACR+RuHACL pathway): 2.73 ± 0.03 mM; fold increase of ethylene glycol (formaldehyde; from 1.37±0.1 mM to 2.73±0.03 mM): 2 fold
